Reference: patent US20020006920A1, “Arylsulfonylamino hydroxamic acid derivatives” (priority 1999, published 2002)

Row | melting point [°C] | SMILES
1 | 184 | O=C(NO)C1(NS(=O)(=O)c2ccc(Oc3ccc(F)cc3)cc2)CC1 [Example 5, 1-[4-(4-Fluorophenoxy)benzenesulfonylamino]cyclopropane-1-carboxylic acid hydroxyamide]
2 | 126 to 127 | CC(C)(NS(=O)(=O)c1ccc(OCCC2CCCC2)cc1)C(=O)NO [Example 12, 2-[4-(2-Cyclopentylethoxy)benzenesulfonylamino]-N-hydroxy-2-methyl-propionamide]
3 | 174 | O=C(NO)C1(NS(=O)(=O)c2ccc(Oc3ccc(F)cc3)cc2)CCCCC1 [Example 4, 1-[4-(4-Fluorophenoxy)benzenesulfonylamino]cyclohexane-1-carboxylic acid hydroxyamide]
4 | 165 to 166 | CC(C)(NS(=O)(=O)c1ccc(-c2ccccn2)s1)C(=O)NO [Example 13, N-Hydroxy-2-methyl-2-(5-pyridin-2-ylthiophene-2-sulfonylamino)propionamide]
5 | 122 to 125 | COc1ccc(S(=O)(=O)NC(C)(C)C(=O)NO)cc1 [Example 9, N-Hydroxy-2-(4-methoxybenzenesulfonylamino)-2-methylpropionamide]

Row | SMILES | melting point [°C]
6 | CC(C)CCOc1ccc(S(=O)(=O)NC(C)(C)C(=O)NO)cc1 [Example 11, N-Hydroxy-2-methyl-2-[4-(3-methylbutoxy)benzenesulfonylamino]-propionamide] | 126.5 to 128
